GI50 and TGI data for 13 compounds are collected here from PubChem BioAssay (NCI).

SMILES strings stand for the structures. Several values for one entry are separate records, joined by “and”; a condition that tells them apart may be missing. Equal values may be shown once.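 Cells were grown in 96-well plates and exposed to each compound for 48 hours at five concentrations; endpoints were interpolated linearly between bracketing concentrations, or set to the highest concentration if not reached. GI50 marks 50% less growth. TGI marks complete inhibition of growth.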

The assay deals with MDA-MB-468 breast. In words: inhibition of tumour cell growth, NCI panel, 48 h.
For the compound `Cc1ccc2oc(=O)cc(C3c4ccc([nH]4)C(c4cc(=O)oc5ccc(C)cc45)c4ccc([nH]4)C(c4cc(=O)oc5ccc(C)cc45)c4ccc([nH]4)C(c4cc(=O)oc5ccc(C)cc45)c4ccc3[nH]4)c2c1` (stereo not given), the GI50 was 0.0344 µM and the TGI was 1.86 µM.
On the same counts, the results for `CO[C@H]1/C=C/C[C@H](C)[C@@H](C)S(=O)(=O)NC(=O)c2ccc3c(c2)N(C[C@@H]2CC[C@H]21)C[C@@]1(CCCc2cc(Cl)ccc21)CO3` are 0.166 µM and 0.55 µM.
In the same order, the values of `COc1ccc(Cn2cc3c(c2-c2ccccc2)CCc2cncnc2-3)cc1` are 3.25 µM and 11 µM.
In the same order, the values of `CCN1CCN(c2nc(C)cc(N(CCCNc3ccnc4cc(Cl)ccc34)Cc3ccco3)n2)CC1` are 2.2 µM and 5.28 µM.
On to `COc1cccc2cc(N(C)c3nc(C)nc4ccsc34)ccc12`, for which the GI50 is below 0.01 µM.
As to `COc1cc(/C=N/O)nc(-c2ccccn2)c1`, the GI50 was 0.307 µM and the TGI was determined as 1.7 µM.
In the same order, the values of `C[C@@H]1CCC2[C@@H](C)[C@H](OC(=O)CCC(=O)NCCNC(=O)Cc3cc(=O)oc4cc(N(C)C)ccc34)O[C@@H]3O[C@]4(C)CC[C@@H]1C23OO4` (stereo not given in full) are 13.4 µM and 59.4 µM.
On the same counts, the results for `O=C1/C(=C/c2ccc(C(F)(F)F)cc2)COc2ccc(O)cc21` are 1.53 µM and 3.04 µM.
For the compound `O=C(NNc1nc2cc(F)cc(F)c2n2cccc12)c1cccnn1`, the GI50 is 0.638 µM and 0.219 µM; the TGI is 2.43 µM and 1.47 µM.
In the case of `CC1(C)CC(O)CCCCCCOc2c(CN)cccc2NC(=O)c2nc(cnc2N)-c2ccc(cc2)S1(=O)=O` (stereo not given), the GI50 is 0.49 µM and the TGI turned out to be 2.45 µM.
On the same counts, the results for `CN1CCN(c2ccc([N+](=O)[O-])c3no[n+]([O-])c23)CC1` are 0.203 µM and 0.821 µM.
In the same order, the values of `CN(C)CCN1C(=O)c2cccc3c(-c4ccc5ncn(C6CCCCC6)c5c4)ccc(c23)C1=O` are 1.74 µM and 4.33 µM.
On the same counts, the results for `Cc1[nH]ccc2cc3nc4ccccc4c3cc12` are 1.91 µM and 9.09 µM.
